Results on 5 molecules are retold here after patent US20170008888A1 (KYORIN PHARMACEUTICAL CO., LTD., priority 2014, published 2017).

Assay [1] concerns the target T1, BRD4 bromodomain domain I [BRD4(1)] (Homo sapiens, UniProt O60885).
T1 construct: BRD4 bromodomain domain I [BRD4(1)]; purchased Cayman Chemicals
The assay can be described thus: BRD4 bromodomain domain 1 inhibition assay (TR-FRET). In kind it is binding. The method, then: The inhibitory activity of test compounds on the bromodomain, BRD4 bromodomain domain I [BRD4(1)], were determined via TR-FRET after a slight modification of the manufacturer's protocol (Cayman Chemicals, Ann Arbor, Mich.). Briefly, compounds were diluted to a 20× ([…]) concentration in DMSO. 100 nL of 20× compounds were then dry stamped into triplicate wells of black, low volume 384 well plates (Aurora Biotechnologies, Carlsbad, Calif.) using the Mosquito liquid handler (TPP Labtech, Melbourn, UK). 20× compounds were then diluted to a 4× (40 μM) concentration in Assay Buffer to result in 2% DMSO content. […] JQ1 at 10 μM or 0.5% DMSO final concentrations were used as the positive and negative controls, respectively, to set the assay window. The fluorescence was read in a time-resolved format on the Biotec Synergy 2 plate reader by exciting the signal at 340 nm and reading emissions at 620 and 670, using a 100 μs delay and 200 μs read window. […] Briefly, TR-FRET ratio values were normalized to the average TR-FRET ratio value given by 10 μM JQ1. […]
Background: TR-FRET usually uses a lanthanide donor and a delayed reading to cut background.

The subject of the next assay is human PBMCs. Kind of assay: Human PBMC TNF-α response to endotoxin (ELISA). Type of assay: cell-based. The note with it: 0.1 μg/ml LPS 16 h, read-out: EC50 for the inhibition of the human PBMC TNF-α response to endotoxin, ave. ± S.D. The gist of the method: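 PBMCs at 2e6 cells/ml in RPMI 1640 with 10% charcoal-dextran-treated FBS were pre-treated 1 h at 37 °C with compound (4-point 1:5 dilution from 10 μM). Stimulation with 0.1 μg/ml E. coli 0111:B4 LPS for 16 h; TNF-α measured by ELISA (A450) in 25-fold diluted supernatant.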

The target of a further assay is T2, AurA (Homo sapiens, UniProt O14965).
T2 construct: screened for activity against several kinases in Jurkat cells; endogenous in cells; host or cells: Jurkat cell lysate
T2 sequence (O14965 1-403): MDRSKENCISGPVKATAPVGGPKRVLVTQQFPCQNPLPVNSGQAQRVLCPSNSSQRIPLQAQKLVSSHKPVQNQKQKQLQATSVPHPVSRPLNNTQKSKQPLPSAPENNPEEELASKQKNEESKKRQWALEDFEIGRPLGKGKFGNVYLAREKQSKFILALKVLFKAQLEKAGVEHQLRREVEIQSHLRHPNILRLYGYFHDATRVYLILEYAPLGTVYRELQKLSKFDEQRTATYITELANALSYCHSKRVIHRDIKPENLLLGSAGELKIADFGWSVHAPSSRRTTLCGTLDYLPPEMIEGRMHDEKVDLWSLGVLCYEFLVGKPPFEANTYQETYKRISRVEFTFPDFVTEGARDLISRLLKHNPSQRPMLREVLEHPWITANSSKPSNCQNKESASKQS
Kind of assay: Probe-based (AX9989) kinase profiling in Jurkat lysate: AurA. Type of assay: binding. The note with it: read-out: AurA Inhibition % at indicated screening concentration; for inhibition at 10 µM: screening concentration 10 μM. The procedure, abridged:
(§1)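 Gel-filtered Jurkat lysate (HEPES pH 7.5, 20 mM MnCl2, 5 mg/ml) was pre-incubated 15 min with compound at room temperature, then labelled with 5 μM acyl-phosphate ATP probe AX9989. Tryptic probe-labelled active-site peptides were streptavidin-captured and quantified by LC/MS. Percent inhibition reflected the decrease in labelled-peptide intensity versus no compound.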

The test system of another assay is AMPKa1 or AMPKa2. Kind of assay: Probe-based (AX9989) kinase profiling in Jurkat lysate: AMPKa1 or AMPKa2. In kind it is binding. The gist of the method:
as §1

The next assay deals with T3, ACK (Homo sapiens, UniProt Q07912).
T3 construct: screened for activity against several kinases in Jurkat cells; endogenous in cells; host or cells: Jurkat cell lysate
The assay can be described thus: Probe-based (AX9989) kinase profiling in Jurkat lysate: ACK. Type of assay: binding. The note with it: read-out: ACK Inhibition % at indicated screening concentration; for inhibition at 10 µM: screening concentration 10 μM. The procedure, abridged:
as §1

For the next assay, the system named is AurB or AurC. The assay can be described thus: Probe-based (AX9989) kinase profiling in Jurkat lysate: AurB or AurC. Type of assay: binding. The gist of the method:
as §1

Another assay concerns ABL or ARG. The assay can be described thus: Probe-based (AX9989) kinase profiling in Jurkat lysate: ABL or ARG. In kind it is binding. The gist of the method:
as §1

The target of another assay is T4, TAO2 (Homo sapiens, UniProt Q9UL54).
T4 construct: screened for activity against several kinases in Jurkat cells; endogenous in cells; host or cells: Jurkat cell lysate
T4 sequence (Q9UL54 1-1235): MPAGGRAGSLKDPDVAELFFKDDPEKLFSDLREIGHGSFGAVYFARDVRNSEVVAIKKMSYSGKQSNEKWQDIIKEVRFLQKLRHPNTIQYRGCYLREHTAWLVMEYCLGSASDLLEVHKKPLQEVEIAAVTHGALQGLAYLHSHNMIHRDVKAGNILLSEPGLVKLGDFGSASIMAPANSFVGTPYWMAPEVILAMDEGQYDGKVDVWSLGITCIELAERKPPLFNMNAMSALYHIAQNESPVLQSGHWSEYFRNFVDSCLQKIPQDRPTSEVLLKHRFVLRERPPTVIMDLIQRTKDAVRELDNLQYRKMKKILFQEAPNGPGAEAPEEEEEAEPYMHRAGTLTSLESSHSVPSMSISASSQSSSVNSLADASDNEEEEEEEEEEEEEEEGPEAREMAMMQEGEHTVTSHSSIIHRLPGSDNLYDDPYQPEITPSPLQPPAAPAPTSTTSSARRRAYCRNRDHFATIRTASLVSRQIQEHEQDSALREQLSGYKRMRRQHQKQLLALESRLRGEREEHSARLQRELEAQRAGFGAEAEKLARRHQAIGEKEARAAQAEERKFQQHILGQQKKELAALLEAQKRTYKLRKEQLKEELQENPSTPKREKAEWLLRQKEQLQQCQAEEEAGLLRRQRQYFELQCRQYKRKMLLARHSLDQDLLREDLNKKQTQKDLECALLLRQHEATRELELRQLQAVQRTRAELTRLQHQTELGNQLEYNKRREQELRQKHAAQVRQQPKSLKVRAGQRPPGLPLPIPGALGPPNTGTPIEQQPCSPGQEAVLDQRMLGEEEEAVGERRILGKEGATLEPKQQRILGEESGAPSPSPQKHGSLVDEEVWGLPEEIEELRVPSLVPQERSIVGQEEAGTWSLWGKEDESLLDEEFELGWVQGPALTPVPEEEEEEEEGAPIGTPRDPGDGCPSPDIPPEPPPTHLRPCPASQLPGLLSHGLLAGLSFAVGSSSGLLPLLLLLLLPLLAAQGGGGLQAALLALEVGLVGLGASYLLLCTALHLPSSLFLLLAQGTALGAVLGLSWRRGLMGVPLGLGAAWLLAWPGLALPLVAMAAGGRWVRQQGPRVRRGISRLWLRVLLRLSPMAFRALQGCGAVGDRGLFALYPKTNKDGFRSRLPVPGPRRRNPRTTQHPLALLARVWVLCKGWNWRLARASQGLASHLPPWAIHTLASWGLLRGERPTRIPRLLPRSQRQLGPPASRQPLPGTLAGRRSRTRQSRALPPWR
The assay can be described thus: Probe-based (AX9989) kinase profiling in Jurkat lysate: TAO2. In kind it is binding. The note with it: read-out: TAO2 Inhibition % at indicated screening concentration; for inhibition at 10 µM: screening concentration 10 μM. The gist of the method: as §1

In a further assay the target is T5, ERK5 (Homo sapiens, UniProt Q13164).
T5 construct: screened for activity against several kinases in Jurkat cells; endogenous in cells; host or cells: Jurkat cell lysate
Kind of assay: Probe-based (AX9989 acyl phosphate ATP probe) kinase profiling in Jurkat lysate: ERK5. In kind it is binding. The note with it: for IC50: calculated from percent inhibition and screening concentration, Jurkat lysate, AX9989 probe; for inhibition at 10 µM: screening concentration 10 μM. The gist of the method:
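Gel-filtered Jurkat lysate (5 mg/ml, 20 mM MnCl2) preincubated 15 min at room temperature with compound, then labelled with 5 μM AX9989 acyl phosphate ATP probe. Probe-labelled ERK5 active-site peptides quantified by LC/MS after trypsin digestion and streptavidin capture; IC50 calculated from percent inhibition at the screening concentration.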

For another assay, the target named is T6, JAK1 (Homo sapiens, UniProt P23458).
T6 construct: screened for activity against several kinases in Jurkat cells; endogenous in cells; host or cells: Jurkat cell lysate
Kind of assay: Probe-based (AX9989) kinase profiling in Jurkat lysate: JAK1. In kind it is binding. The note with it: read-out: JAK1 Inhibition % at indicated screening concentration; for inhibition at 10 µM: screening concentration 10 μM. The procedure, abridged: as §1

Setting [2] is: read-out: ERK5 Inhibition % at indicated screening concentration.

T3 sequence (Q07912 whole entry): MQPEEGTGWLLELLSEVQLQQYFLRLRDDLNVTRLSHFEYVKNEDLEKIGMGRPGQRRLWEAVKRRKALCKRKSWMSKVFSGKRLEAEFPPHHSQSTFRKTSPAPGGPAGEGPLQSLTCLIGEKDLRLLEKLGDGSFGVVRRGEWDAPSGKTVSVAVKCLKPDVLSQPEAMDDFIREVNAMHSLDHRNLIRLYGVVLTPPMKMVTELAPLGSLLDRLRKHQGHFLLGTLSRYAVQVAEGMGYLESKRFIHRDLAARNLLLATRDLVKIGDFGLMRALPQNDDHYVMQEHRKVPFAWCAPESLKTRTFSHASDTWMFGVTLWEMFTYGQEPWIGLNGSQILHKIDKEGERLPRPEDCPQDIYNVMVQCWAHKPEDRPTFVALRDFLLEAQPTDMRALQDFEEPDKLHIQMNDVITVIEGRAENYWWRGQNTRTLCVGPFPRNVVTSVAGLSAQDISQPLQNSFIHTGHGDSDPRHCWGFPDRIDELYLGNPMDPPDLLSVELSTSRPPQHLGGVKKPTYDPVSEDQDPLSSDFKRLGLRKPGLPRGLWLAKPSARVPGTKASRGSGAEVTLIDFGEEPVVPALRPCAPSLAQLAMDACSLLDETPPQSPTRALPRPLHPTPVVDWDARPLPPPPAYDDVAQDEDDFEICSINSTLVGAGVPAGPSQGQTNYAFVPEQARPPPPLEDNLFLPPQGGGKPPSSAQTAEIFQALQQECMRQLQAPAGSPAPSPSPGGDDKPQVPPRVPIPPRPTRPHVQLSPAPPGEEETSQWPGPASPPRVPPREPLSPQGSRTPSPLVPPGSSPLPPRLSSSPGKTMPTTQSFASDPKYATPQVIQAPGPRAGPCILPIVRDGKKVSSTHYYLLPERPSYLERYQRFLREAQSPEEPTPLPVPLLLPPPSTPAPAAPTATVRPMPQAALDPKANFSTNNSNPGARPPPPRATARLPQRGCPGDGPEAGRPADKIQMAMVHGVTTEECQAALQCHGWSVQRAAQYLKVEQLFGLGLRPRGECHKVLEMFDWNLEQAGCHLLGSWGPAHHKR
T6 sequence (P23458 whole entry): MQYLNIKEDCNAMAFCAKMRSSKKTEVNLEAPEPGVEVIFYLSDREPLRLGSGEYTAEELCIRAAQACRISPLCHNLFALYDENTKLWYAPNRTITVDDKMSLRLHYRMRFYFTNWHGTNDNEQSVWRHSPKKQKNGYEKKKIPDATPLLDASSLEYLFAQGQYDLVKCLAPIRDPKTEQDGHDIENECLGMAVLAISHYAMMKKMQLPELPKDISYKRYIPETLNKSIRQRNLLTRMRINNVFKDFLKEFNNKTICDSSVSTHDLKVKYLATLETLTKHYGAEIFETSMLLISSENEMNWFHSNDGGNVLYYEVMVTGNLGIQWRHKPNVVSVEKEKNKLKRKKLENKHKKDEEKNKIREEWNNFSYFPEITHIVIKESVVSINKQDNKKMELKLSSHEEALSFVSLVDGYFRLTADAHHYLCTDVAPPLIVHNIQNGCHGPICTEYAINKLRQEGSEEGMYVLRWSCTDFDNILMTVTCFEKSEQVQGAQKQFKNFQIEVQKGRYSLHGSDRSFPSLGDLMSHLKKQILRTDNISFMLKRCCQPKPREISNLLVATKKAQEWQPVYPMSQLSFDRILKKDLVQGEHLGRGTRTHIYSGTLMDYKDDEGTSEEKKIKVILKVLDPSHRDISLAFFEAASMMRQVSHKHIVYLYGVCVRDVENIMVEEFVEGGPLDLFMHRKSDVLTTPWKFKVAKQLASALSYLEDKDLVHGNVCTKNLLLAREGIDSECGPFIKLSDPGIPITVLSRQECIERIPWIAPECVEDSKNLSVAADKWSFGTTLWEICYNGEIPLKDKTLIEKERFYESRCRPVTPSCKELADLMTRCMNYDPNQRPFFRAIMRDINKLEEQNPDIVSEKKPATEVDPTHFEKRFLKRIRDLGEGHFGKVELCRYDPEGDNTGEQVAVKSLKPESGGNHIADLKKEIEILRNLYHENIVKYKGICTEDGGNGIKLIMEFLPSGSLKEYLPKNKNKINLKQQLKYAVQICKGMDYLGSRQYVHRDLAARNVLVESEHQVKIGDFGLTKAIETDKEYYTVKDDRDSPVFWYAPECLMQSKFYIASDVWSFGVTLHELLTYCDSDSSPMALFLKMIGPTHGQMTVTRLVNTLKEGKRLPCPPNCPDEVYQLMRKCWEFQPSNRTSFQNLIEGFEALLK
T5 sequence (Q13164 whole entry): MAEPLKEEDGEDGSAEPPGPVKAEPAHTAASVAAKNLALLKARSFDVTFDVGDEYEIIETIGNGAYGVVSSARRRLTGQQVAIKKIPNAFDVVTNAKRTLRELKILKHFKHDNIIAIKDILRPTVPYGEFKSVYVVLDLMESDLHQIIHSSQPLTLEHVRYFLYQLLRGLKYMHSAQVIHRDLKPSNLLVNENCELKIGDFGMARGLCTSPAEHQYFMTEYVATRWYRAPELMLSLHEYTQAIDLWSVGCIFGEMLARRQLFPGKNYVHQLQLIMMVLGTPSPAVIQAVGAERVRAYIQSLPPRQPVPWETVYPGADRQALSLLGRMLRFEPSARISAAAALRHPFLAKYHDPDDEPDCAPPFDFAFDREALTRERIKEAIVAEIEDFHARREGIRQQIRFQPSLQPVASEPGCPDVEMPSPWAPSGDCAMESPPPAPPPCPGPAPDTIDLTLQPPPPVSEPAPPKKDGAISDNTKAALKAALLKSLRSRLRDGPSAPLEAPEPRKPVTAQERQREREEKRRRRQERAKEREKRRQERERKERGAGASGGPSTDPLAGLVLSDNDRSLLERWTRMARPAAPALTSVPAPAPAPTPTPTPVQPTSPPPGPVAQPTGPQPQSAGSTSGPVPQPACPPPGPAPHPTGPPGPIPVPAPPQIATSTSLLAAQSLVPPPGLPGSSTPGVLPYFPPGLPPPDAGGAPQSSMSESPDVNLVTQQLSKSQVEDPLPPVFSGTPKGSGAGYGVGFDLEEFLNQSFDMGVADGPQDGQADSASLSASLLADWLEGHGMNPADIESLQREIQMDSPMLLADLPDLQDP

Consider `CCOc1cc(C(=O)N2CC[C@H](NC3CCN(C)CC3)C2)ccc1Nc1cc2c(cn1)N(C)C(=O)c1ccccc1N2C` [Compound T61], for which the inhibition at 10 µM in [1] (screening concentration 10 μM) is over 85%. Moreover, the concentration giving a half-maximal response (EC50) (commonly the midpoint of the concentration-response curve) in the assay on human PBMCs was determined as 420 nM.

As for `CCOc1cc(C(=O)N2CCC(N3CCN(C)CC3)CC2)ccc1Nc1cc2c(cn1)N(C)C(=O)c1ccccc1N2S(C)(=O)=O` [Compound T85], the inhibition at 1 µM is at most 35% at AurA (screening concentration 1 μM); at most 35% on ACK (screening concentration 1 μM); at most 35% on TAO2 (screening concentration 1 μM); at most 35% at ERK5 (screening concentration 1 μM, read-out: ERK5 Inhibition % at indicated screening concentration); at most 35% on JAK1 (screening concentration 1 μM). For the same molecule, the “AMPKa1 or AMPKa2 Inhibition % at indicated screening concentration” value (shortened to “AMPKa1 or AMPKa2 Inhibition %”) with AMPKa1 or AMPKa2 (screening concentration 1 μM) is listed as “E (E is ≦35%)”. For the same molecule, the “AurB or AurC Inhibition % at indicated screening concentration” value (“AurB or AurC Inhibition %” for short) in the assay on AurB or AurC (screening concentration 1 μM) is “E (E is ≦35%)”. Moreover, the “ABL or ARG Inhibition % at indicated screening concentration” value (“ABL or ARG Inhibition %” below) in the assay on ABL or ARG (screening concentration 1 μM) is recorded as “E (E is ≦35%)”. On ERK5, the IC50 (as a rule, the concentration at which inhibition is half-maximal) was over 500 nM. In the assay with human PBMCs, the EC50 is over 15000 nM.

Regarding `CN1C(=O)c2ccccc2N(C)c2cc(N[C@H]3C[C@H](O)C3)ncc21` [Compound T88], the inhibition at 10 µM at AurA is 50 to 75%; on ACK it was at most 35%; at TAO2, 35 to 50%; at ERK5 (setting [2]), 75 to 90%; on JAK1, at most 35%. Also, the “AMPKa1 or AMPKa2 Inhibition %” value in the assay with AMPKa1 or AMPKa2 (screening concentration 10 μM) is on record as “E (E is ≦35%)”. The “AurB or AurC Inhibition %” value in the assay on AurB or AurC (screening concentration 10 μM) was “B (B is >75% to ≦90%)”. In the assay with ABL or ARG (screening concentration 10 μM), the “ABL or ARG Inhibition %” value is reported as “E (E is ≦35%)”. Also, the IC50 at ERK5 was over 500 nM. The EC50 in the assay on human PBMCs was 2530 nM.

As to `CCOc1cc(C(=O)N2CCN(C3CCN(C)CC3)CC2)ccc1Nc1cc2c(cn1)N(C)C(=O)c1ccccc1[S+]2[O-]` (stereo not shown) [Compound T100], the inhibition at 10 µM at AurA is at most 35%; on ACK, at most 35%; at TAO2, at most 35%; on ERK5 (setting [2]), 75 to 90%; on JAK1 it was at most 35%. For the same molecule, in the assay with AMPKa1 or AMPKa2 (screening concentration 10 μM), the “AMPKa1 or AMPKa2 Inhibition %” value was “E (E is ≦35%)”. The “AurB or AurC Inhibition %” value in the assay on AurB or AurC (screening concentration 10 μM) was “E (E is ≦35%)”. Also, the “ABL or ARG Inhibition %” value in the assay with ABL or ARG (screening concentration 10 μM) is reported as “E (E is ≦35%)”. Also, the half-maximal inhibitory concentration (IC50) on ERK5 is over 500 nM. In addition, the EC50 in the assay on human PBMCs was over 15000 nM.

Take `CN1C(=O)c2ccccc2S(=O)(=O)c2cc(N[C@H]3CC[C@H](O)CC3)ncc21` [Compound T127]: the half-inhibitory concentration (IC50) in assay [1] is over 5000 nM. Moreover, in the assay on human PBMCs, the concentration giving a half-maximal response (EC50) was found to be 4600 nM.
